The results in this text go back to patent US7696233B2, “Method for controlling particular insect pests by applying anthranilamide compounds” (E. I. du Pont de Nemours and Company, priority 2001, dated 2010).

The melting point is the temperature, or range, at which the solid turns liquid.

Read-outs that look alike come from different tables or passages of the source.

The subject of data set [1] is tobacco budworm (Heliothis virescens). Nature of the data set: Test I: soil systemic control of tobacco budworm, cotton. Type of data set: in vivo. The conditions noted are these: 10 ppm, 10 mL to pots weekly for four weeks. The protocol: For evaluating soil systemic control of tobacco budworm (Heliothis virescens), cotton plants were grown in sassafras soil in 15-cm pots in aluminum trays. When the plants reached square stage (bud formation on the plant) the plants were treated with the test compounds.
Test compounds were formulated in 0.25 mL of acetone and then diluted with water to provide solutions of 10 ppm. Ten mL of the treatment solutions was added to the pots weekly for four weeks, with four replicates of each treatment rate. One day after the second, third and fourth treatments, 35-50 first instar Heliothis virescens larvae were brushed on each plant with paintbrushes and placed on the terminal area, squares, and bolls. Five days after the last infestation with larvae the plants were rated for damage.

The test system of data set [2] is Colorado potato beetle (Leptinotarsa decemlineata). The experiment in a line: Test L: soil systemic control of Colorado potato beetle, tomato. The conditions noted are these: 5 ppm, 5 mL to soil; leaf excised after 4 days; mortality after four days. Type of data set: in vivo. The protocol:
For evaluating soil systemic control of Colorado potato beetle (Leptinotarsa decemlineata), transplanted tomato plants were grown in 6-cm pots for 5 days until they were at the two true leaf stage.
Test compounds were dissolved in 0.25 mL of acetone and diluted with water provide solutions of 5 ppm. Five mL of the appropriate test solution was applied by pipette to the surface of the soil in each pot, followed by 5 mL of water, with eight plants for each compound/rate. The pots were covered and held at 25° C. with 16 hours of light per day. The plants were watered the next day and each day following as needed. After 4 days, one leaf from each plant was excised and placed into a well of a test tray as described in Test H. One 5-day old Colorado potato beetle (Leptinotarsa decemlineata) was placed in each well, the tray was covered and then the test units were held at 25° C. with 16 hours of light per day. Mortality was observed after four days.

Data set [3] relates to Heliothis virescens (tobacco budworm). The format is in vivo. The conditions noted are these: 10 mL of 300 ppm, 0 equals no feeding. The method, then: Seventy-eight cotton plants were grown in the greenhouse with natural lighting in Sassafras soil in six inch pots. When six true leaves were on the plant (approximately 36 cm tall) the soil was drenched with a solution of Compound 497, 500, 530, 531 or 543. Each of the 5 compounds was dissolved in 2 mL of acetone, and distilled water was added to make 300 ppm solutions of each of the compounds. The pots were divided into six groups (13 plants/treatment), and 10 mL of each solution was applied over the soil surface of each group with one group left untreated. The plants were arranged in the greenhouse in a randomized block design. Each treatment was divided into three groups for sampling at 24, 48, and 96 hours.
Leaves were taken from the base and terminal of the plants. The leaves from the third node and the terminal leaves greater than 15 cm^2 were sampled per plant. One clipped leaf from each plant was cut into four pieces and each piece was placed into an well with one second-instar larvae of Heliothis virescens (tobacco budworm). Larval mortality (% M) was recorded 96 hours after sampling. The percentage of leaf feeding (% FF) was also recorded. Consumption of the leaf in the well was reported as 0-100% (0 equals no feeding).

Data set [4] deals with southern fire ants (Solenopsis xyloni). The experiment in a line: Test R: fire ant bait test. The conditions noted are these: fifty ants per cage. The format is in vivo. From the text: For evaluating control of fire ant (Solenopsis xyloni), Compound 531 was mixed with water and then mixed into a slurry with equal amounts (by weight) of Niban granular bait with no active ingredient (supplied by Nisus Corp.). The baits were uniformly sprinkled onto the sand substrate in each test cage. Fifty field-collected southern fire ants (Solenopsis xyloni) were then placed into each cage and provided water via a saturated cotton ball. The cages were held indoors with indirect sunlight and temperatures ranging from 22 to 31° C. Four test replicates were set up per rate. Evaluations were conducted at 1, 3, 7, 10, and 14 days after treatment (DAT) by counting and removing the killed ants found in each cage.

Data set [5] relates to German cockroaches (Blatella germanica). Nature of the data set: Test Q: German cockroach bait test. The format is in vivo. The conditions noted are these: ten cockroaches per cage. The method, then:
For evaluating german cockroach (Blatella germanica), Compound 531 was mixed with water, and then blended into a slurry with equal amounts (by weight) of peanut butter. Approximately 1 gram of bait was placed into each test cage. Ten German cockroaches (Blatella germanica) were then placed into each cage, and provided water via a saturated cotton ball. The cages were held indoors, with indirect sunlight, and temperatures ranging from 22 to 31° C. Four test replicates were set up per rate. Evaluations were conducted 1, 2, 3, 5, and 7 days after treatment (DAT) by counting and removing the killed roaches found in each cage.

Data set [6] relates to thrips (Frankliniella sp.). The experiment in a line: Test N: control of thrips, sprayed cotton or soybean plants. The conditions noted are these: sprayed at 10 ppm; four days after application. Type of data set: in vivo. The protocol: For evaluating control of thrips (Frankliniella sp.), samples of the test compounds were dissolved in 1 mL of acetone. This solution was then diluted to 100 mL total volume using an aqueous 500 ppm solution of Ortho X-77™ surfactant. Serial dilutions were made to obtain 50 mL of 10 ppm concentration.
The diluted solutions of the test compounds were sprayed to run-off on three-week-old cotton or soybean plants infested with thrips. The plants were placed on a rotating turntable sprayer (10 rpm). Test solutions were applied using a flat fan air-assisted nozzle (Spraying Systems 122440) at 10 psi (69 kPa). Sprayed and dried plants were incased in a plastic cylinder. At four days after application the total number of dead thrips was recorded.

Where [7] appears, read: base leaf sampled 24 h after drench.
The mark [8] stands for this setting: base leaf sampled 48 h after drench.
The mark [9] stands for this setting: base leaf sampled 96 h after drench.
[10] abbreviates: terminal leaf sampled 24 h after drench.
The mark [11] stands for this setting: terminal leaf sampled 48 h after drench.
Setting [12] is: terminal leaf sampled 96 h after drench.

In the case of `CCn1nc(C(F)(F)F)cc1NC(=O)c1c(C)cccc1C(=O)NC(C)C`, the melting point is 200 to 204 °C.

In the case of `CNC(=O)c1cc(Cl)cc(C)c1NC(=O)c1cc(OCC(F)(F)F)nn1-c1ncccc1Cl`, the melting point was 215 to 217 °C.

Molecule `Cc1cccc(C(=O)NC(C)C)c1NC(=O)c1cc(C(F)(F)F)nn1-c1ncccc1C(F)(F)F` showed a melting point of 233 to 235 °C.

For `CNC(=O)c1cc(Cl)cc(C)c1NC(=O)c1cc(Cl)nn1-c1ncccc1Cl`, the melting point lay in the range of 205 to 207 °C.

On to `Cc1cccc(C(=O)NC(C)C)c1NC(=O)c1cc(C(F)(F)F)nn1-c1ncccc1Cl` [Compound 214], for which the “protection of squares and bolls” value in data set [1] was “excellent protection of squares and boils including no or minimal sepal damage”. Besides, in data set [2], the “mortality and feeding inhibition” value is “excellent levels of mortality and feeding inhibition”.

Take `Cc1cccc(C(=O)NC(C)C)c1NC(=O)c1cc(Br)nn1-c1ncccc1Cl` [Compound 283]: the “protection of squares and bolls” value in data set [1] is “excellent protection of squares and boils including no or minimal sepal damage”.

In the case of `Cc1cc(Cl)cc(C(=O)NC(C)C)c1NC(=O)c1cc(C(F)(F)F)nn1-c1ncccc1Cl` [Compound 497], the “% FF (percentage of leaf feeding)” value is on record as 80% in data set [3] (setting [7]); 100% in data set [3] (setting [8]); 20% in data set [3] (setting [9]); 50% in data set [3] (setting [10]); 50% in data set [3] (setting [11]); 10% in data set [3] (setting [12]).

On to `CNC(=O)c1cc(Cl)cc(C)c1NC(=O)c1cc(C(F)(F)F)nn1-c1ncccc1Cl` [Compound 500], for which the “% FF (percentage of leaf feeding)” value is reported as 80% in data set [3] (setting [7]); 80% in data set [3] (setting [8]); 30% in data set [3] (setting [9]); 60% in data set [3] (setting [10]); 60% in data set [3] (setting [11]); 30% in data set [3] (setting [12]).

Take `Cc1cc(Br)cc(C(=O)NC(C)C)c1NC(=O)c1cc(Br)nn1-c1ncccc1Cl` [Compound 520]: in data set [1], the “protection of squares and bolls” value is “excellent protection of squares and boils including no or minimal sepal damage”.

Consider `Cc1cc(Cl)cc(C(=O)NC(C)C)c1NC(=O)c1cc(Br)nn1-c1ncccc1Cl` [Compound 530], for which the “% FF (percentage of leaf feeding)” value in data set [3] (setting [7]) is listed as 80%; in data set [3] (setting [8]) it was 50%; in data set [3] (setting [9]) it was 5%; in data set [3] (setting [10]) it was 50%; in data set [3] (setting [11]) it was 20%; in data set [3] (setting [12]), 5%.

As to `CNC(=O)c1cc(Cl)cc(C)c1NC(=O)c1cc(Br)nn1-c1ncccc1Cl` [Compound 531], the “% FF (percentage of leaf feeding)” value in data set [3] (setting [7]) is recorded as 60%; in data set [3] (setting [8]) it was 80%; in data set [3] (setting [9]), 10%; in data set [3] (setting [10]) it was 40%; in data set [3] (setting [11]), 40%; in data set [3] (setting [12]) it was 10%. Moreover, the “Average of Killed Fire Ants” value was found to be 0.5 in data set [4] (granular bait 400 ppm, 1 DAT); 1.3 in data set [4] (granular bait 400 ppm, 3 DAT); 40.5 in data set [4] (granular bait 400 ppm, 7 DAT); 50 in data set [4] (granular bait 400 ppm, 10 DAT); 50 in data set [4] (granular bait 400 ppm, 14 DAT); 1 in data set [4] (granular bait 2,000 ppm, 1 DAT). The “Average of Killed Fire Ants” value is on record as 2 in data set [4] (granular bait 2,000 ppm, 3 DAT); 43 in data set [4] (granular bait 2,000 ppm, 7 DAT); 49.8 in data set [4] (granular bait 2,000 ppm, 10 DAT); 50 in data set [4] (granular bait 2,000 ppm, 14 DAT); 0 in data set [4] (granular bait 10,000 ppm, 1 DAT); 2.3 in data set [4] (granular bait 10,000 ppm, 3 DAT). The “Average of Killed Fire Ants” value is 42.8 in data set [4] (granular bait 10,000 ppm, 7 DAT); 50 in data set [4] (granular bait 10,000 ppm, 10 DAT); 50 in data set [4] (granular bait 10,000 ppm, 14 DAT). For the same molecule, the “Average of Killed Cockroaches” value was 3.8 in data set [5] (peanut butter bait 400 ppm, 1 DAT); 5.8 in data set [5] (peanut butter bait 400 ppm, 2 DAT); 6.3 in data set [5] (peanut butter bait 400 ppm, 3 DAT); 7 in data set [5] (peanut butter bait 400 ppm, 5 DAT); 7 in data set [5] (peanut butter bait 400 ppm, 7 DAT); 6.3 in data set [5] (peanut butter bait 2000 ppm, 1 DAT). The “Average of Killed Cockroaches” value in data set [5] (peanut butter bait 2000 ppm, 2 DAT) is recorded as 8; in data set [5] (peanut butter bait 2000 ppm, 3 DAT), 8.8; in data set [5] (peanut butter bait 2000 ppm, 5 DAT), 9; in data set [5] (peanut butter bait 2000 ppm, 7 DAT), 9; in data set [5] (peanut butter bait 10000 ppm, 1 DAT) it was 9.5; in data set [5] (peanut butter bait 10000 ppm, 2 DAT), 9.5. The “Average of Killed Cockroaches” value in data set [5] (peanut butter bait 10000 ppm, 3 DAT) came to 9.5; in data set [5] (peanut butter bait 10000 ppm, 5 DAT), 9.5; in data set [5] (peanut butter bait 10000 ppm, 7 DAT) it was 9.5.

On to `CNC(=O)c1cc(Br)cc(C)c1NC(=O)c1cc(C(F)(F)F)nn1-c1ncccc1Cl` [Compound 542], for which the mortality result in data set [6] was “at least 90%”.

As to `Cc1cc(Cl)cc(C(=O)NC(C)C)c1NC(=O)c1cc(Cl)nn1-c1ncccc1Cl` [Compound 543], the “% FF (percentage of leaf feeding)” value in data set [3] (setting [7]) is recorded as 30%; in data set [3] (setting [8]) it was 30%; in data set [3] (setting [9]), 5%; in data set [3] (setting [10]), 20%; in data set [3] (setting [11]), 20%; in data set [3] (setting [12]), 5%.
